One assay concerns the target Nav1.8 (Homo sapiens, UniProt Q9Y5Y9). In kind it is cell-based. The note with it: CHO-K1, read-out: % inhibition at 300 μM.
The target of another assay is Nav1.7 (Homo sapiens, UniProt Q15858). The format is cell-based.
Chain of Nav1.7 (Q15858 whole entry): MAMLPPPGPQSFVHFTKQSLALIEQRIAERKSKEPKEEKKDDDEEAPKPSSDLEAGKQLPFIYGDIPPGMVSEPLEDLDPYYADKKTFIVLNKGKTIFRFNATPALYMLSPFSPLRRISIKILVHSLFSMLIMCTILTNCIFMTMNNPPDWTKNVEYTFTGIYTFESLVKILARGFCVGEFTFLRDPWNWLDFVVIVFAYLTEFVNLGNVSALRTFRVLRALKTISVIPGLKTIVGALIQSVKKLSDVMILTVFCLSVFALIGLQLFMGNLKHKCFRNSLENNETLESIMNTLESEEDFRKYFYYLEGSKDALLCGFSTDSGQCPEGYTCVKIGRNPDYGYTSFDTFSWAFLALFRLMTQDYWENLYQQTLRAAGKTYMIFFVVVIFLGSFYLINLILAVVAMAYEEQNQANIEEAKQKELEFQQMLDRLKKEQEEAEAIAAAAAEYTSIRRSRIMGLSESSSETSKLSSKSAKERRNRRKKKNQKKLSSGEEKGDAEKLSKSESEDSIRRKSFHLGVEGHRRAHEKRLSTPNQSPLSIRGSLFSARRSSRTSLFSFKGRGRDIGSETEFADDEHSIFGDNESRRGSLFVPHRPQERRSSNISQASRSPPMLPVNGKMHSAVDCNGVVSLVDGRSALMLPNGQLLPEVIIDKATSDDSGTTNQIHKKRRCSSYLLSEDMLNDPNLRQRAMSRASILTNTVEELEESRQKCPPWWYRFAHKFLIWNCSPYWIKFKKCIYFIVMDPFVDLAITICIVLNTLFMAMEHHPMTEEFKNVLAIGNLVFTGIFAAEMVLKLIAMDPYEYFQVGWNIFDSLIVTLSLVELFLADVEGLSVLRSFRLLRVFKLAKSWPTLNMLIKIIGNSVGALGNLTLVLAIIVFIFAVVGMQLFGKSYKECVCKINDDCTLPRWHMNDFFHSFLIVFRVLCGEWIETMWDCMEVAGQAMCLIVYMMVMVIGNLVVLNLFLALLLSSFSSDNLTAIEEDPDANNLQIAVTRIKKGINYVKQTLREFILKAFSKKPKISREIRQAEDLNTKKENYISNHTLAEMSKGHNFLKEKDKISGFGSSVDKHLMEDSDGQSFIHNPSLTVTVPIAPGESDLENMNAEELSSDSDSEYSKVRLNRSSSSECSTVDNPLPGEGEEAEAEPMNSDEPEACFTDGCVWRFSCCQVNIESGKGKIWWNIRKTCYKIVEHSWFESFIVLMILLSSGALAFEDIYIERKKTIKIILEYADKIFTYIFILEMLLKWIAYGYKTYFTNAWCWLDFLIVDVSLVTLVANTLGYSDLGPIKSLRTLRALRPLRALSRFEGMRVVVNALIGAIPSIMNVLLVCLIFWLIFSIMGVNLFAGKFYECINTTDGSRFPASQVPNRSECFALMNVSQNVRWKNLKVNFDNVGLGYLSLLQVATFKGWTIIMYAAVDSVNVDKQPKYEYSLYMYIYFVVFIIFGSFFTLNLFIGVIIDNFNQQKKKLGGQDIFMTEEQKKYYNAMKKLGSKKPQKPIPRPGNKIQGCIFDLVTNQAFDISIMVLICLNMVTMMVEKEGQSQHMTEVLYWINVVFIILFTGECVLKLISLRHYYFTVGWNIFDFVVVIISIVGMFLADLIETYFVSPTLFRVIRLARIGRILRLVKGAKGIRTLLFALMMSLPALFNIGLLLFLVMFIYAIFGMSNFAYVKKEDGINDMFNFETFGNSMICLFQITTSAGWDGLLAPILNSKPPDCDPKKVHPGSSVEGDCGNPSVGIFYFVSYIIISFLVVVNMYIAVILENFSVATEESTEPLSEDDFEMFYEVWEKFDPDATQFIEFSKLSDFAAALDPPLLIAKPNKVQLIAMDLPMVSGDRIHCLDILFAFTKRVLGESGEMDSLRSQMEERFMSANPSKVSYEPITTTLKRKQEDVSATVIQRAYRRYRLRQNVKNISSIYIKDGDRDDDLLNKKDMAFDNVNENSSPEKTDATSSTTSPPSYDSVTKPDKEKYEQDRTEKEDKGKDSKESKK

Chain of Nav1.8 (Q9Y5Y9 whole entry): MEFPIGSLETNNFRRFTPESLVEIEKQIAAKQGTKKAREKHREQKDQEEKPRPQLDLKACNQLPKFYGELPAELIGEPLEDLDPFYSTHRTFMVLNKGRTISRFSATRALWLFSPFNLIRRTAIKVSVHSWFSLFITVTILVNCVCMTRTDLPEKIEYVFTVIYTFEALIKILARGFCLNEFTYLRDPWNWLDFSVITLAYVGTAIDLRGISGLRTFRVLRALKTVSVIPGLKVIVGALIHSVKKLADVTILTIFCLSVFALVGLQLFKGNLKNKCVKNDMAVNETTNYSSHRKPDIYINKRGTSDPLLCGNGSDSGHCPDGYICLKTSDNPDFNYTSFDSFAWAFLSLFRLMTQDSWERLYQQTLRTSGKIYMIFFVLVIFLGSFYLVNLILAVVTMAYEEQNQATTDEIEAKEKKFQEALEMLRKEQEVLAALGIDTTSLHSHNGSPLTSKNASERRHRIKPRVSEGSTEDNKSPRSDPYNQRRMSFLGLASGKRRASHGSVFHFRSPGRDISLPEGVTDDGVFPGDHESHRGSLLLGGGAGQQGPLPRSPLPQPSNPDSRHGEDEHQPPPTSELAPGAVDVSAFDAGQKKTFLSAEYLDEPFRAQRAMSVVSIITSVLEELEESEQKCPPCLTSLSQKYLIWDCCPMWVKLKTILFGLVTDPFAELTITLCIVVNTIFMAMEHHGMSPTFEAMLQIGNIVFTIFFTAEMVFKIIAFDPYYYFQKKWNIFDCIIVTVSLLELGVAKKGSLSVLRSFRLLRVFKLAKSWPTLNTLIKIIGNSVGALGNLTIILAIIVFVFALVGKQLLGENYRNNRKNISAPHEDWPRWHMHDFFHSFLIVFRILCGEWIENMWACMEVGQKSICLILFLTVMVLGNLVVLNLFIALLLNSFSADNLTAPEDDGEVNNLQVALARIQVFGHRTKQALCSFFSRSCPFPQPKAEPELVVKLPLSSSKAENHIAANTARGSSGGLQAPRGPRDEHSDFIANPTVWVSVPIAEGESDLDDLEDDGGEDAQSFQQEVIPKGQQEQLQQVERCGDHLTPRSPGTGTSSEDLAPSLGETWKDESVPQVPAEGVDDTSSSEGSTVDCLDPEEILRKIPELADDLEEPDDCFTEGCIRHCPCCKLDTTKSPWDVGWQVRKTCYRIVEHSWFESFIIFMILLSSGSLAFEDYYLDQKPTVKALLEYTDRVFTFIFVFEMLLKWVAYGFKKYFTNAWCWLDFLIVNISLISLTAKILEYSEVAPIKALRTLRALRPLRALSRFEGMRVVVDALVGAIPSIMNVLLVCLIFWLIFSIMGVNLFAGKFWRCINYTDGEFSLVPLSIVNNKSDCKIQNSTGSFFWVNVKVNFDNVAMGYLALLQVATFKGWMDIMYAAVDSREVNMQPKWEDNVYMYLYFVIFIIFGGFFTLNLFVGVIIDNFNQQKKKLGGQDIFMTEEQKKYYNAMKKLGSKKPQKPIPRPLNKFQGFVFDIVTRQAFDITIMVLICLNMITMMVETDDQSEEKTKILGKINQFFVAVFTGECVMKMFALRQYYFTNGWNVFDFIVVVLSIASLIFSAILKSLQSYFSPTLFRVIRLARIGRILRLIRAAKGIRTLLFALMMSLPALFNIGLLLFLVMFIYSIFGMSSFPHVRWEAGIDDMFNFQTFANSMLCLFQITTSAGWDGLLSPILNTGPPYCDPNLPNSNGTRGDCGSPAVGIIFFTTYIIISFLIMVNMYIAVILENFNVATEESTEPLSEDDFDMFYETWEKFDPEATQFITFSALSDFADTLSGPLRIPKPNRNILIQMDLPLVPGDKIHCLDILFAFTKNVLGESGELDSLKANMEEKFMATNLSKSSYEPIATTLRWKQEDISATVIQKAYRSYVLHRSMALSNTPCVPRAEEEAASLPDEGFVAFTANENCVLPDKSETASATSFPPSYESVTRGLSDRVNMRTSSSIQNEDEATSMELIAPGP
Chain of Nav1.8 (Q9NY72 23-215 partner): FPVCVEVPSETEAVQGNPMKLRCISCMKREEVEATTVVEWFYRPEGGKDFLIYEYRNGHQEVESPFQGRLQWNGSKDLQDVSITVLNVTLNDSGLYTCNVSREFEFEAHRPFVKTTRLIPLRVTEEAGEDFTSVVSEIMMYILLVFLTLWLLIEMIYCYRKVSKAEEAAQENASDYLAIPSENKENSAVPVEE

As to `CCC(C(=O)Nc1c(C)cccc1C)[N+]1(CC)CCCCC1` (stereo not drawn) [BW-031, 1-(1-(2,6-dimethylphenylamino)-1-oxobutan-2-yl)-1-ethylpiperidinium], the inhibition (commonly the percentage by which the read-out fell short of the control) at 300 µM on Nav1.8 was determined as 30 ± 18%. The IC50 (commonly the concentration needed to halve the response being measured) at Nav1.7 came to 9.5 µM.

`CC[N+](CC)(CC)CC(=O)Nc1c(C)cccc1C` [QX-314]: it took 66 µM to reach half-maximal inhibition on Nav1.7 (IC50).

The values are drawn from PMC8643097 (British journal of pharmacology, 2021).
